Source: PMC3084839, “Origin of Secretin Receptor Precedes the Advent of Tetrapoda: Evidence on the Separated Origins of Secretin and Orexin” (PLoS ONE, 2011)
Ends that are not written are not given here.

Assays:
[1] = test system: orexin receptor; details: rat anterior hypothalamus and orexin receptor-transfected cells; cited from earlier work
Excerpt: (§1) Orexins A and B [17] or hypocretins 1 and 2 [18] are peptides isolated from the rat hypothalamus in 1998 by two independent research groups. Both peptides are derived from the same precursor protein and are produced by differential proteolytic cleavage. Because the C-terminal portions of both orexin peptides resemble the N-terminal of secretin, orexins were proposed to have originated from secretin or the related peptides in the secretin/glucagon superfamily, [19]. This hypothesis was then examined by studying the bindings of these peptides with their receptors in mammals and conf ...

[2] = test system: R. rugulosa pancreatic ductal cells; assay: cAMP production in primary culture of R. rugulosa pancreatic ductal cells; type: cell-based, Rana rugulosa; details: positive control
Method: Adult male R. rugulosa was sacrificed by cervical decapitation. The freshly excised pancreas was removed and washed in Ringer solution (in mM, 85 NaCl, 4 KCl, 17.5 NaHCO3, 0.8 KH2PO4, 2 glucose, 1.5 CaCl2 and 0.8 MgCl2, pH 7.6). The excised pancreas was then minced into approximately 1 mm^3 pieces and digested at room temperature for 1 hr in the dissociation medium (Ringer solution supplemented with 0.2 mg/ml soy beans trypsin inhibitor (Sigma), 2 mg/ml BSA (Roche), 400 U/ml hyaluronidase (Sigma) and 50 U/ml collagenase (Sigma)). The tissue suspension was then washed with Ringer solution and small clusters of dissociated cells were filtered with the use of a 100-µm cell strainer (BD Falcon, US). Filtrate containing the undigested tissue, including the pancreatic ducts, was maintained in culture medium (80% Leibovitz's L-15 medium (Invitrogen) supplemented with 10% FBS and 100 U/ml Penicillin/[…] Streptomycin) in a humidified incubator at 24°C. […] The isolated pancreatic ductal cells were then used for cAMP stimulation in the presence of xSCT peptides and forskolin.

[3] = molecular target: T1, xOX2R (Xenopus orexin type-2 receptor) (Xenopus laevis, UniProt F8RUB9); assay: Intracellular calcium mobilization in xOX2R-CHO cells; type: cell-based; details: data not shown
T1 sequence (F8RUB9 1-440): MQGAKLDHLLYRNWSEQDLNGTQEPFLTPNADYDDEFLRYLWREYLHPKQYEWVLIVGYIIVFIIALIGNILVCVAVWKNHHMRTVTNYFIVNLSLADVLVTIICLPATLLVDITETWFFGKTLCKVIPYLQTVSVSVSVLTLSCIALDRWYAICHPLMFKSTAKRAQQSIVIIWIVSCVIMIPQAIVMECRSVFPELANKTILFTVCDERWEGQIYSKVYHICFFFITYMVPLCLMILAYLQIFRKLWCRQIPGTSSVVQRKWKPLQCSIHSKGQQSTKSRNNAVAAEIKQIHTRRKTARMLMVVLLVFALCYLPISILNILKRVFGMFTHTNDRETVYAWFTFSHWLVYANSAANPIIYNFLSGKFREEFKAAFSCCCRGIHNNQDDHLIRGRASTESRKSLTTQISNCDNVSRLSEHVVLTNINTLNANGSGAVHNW
Method: (§2) For confocal calcium imaging, transiently transfected cells were plated at a density of 3000 cells/well in 24-well plates (Sigma-Aldrich, St. Louis, MO). After overnight incubation, cells were pre-loaded with 5 µM Fluo-3 acetoxymethyl ester (AM) (Sigma) for 45 min at 37°C in Tyrode solution consisting of (mM): 140 NaCl, 5 KCl, 1 MgCl2, 1 CaCl2, 10 glucose and 10 HEPES at pH 7.4. Calcium transient of single receptor-transfected CHO cell was recorded with a confocal imaging system (Olympus Fluoview System version 4.2 FV300 TIEMPO) mounted on an upright Olympus microscope (IX71). Peptides at concentrations ranging from 10^−5 to 10^−12 M were added at designated time point and calcium level was traced in a real-time manner using the Fluoview software (Olympus). […] For both assays, ionomycin (10 µM) was added at the end of each experiment to test the vitality of the cells.
(§3) Differences were considered significant when P<0.05.

[4] = test system: human orexin type-2 receptor; details: human orexin type-2 receptor-transfected CHO cells; cited from earlier work
Excerpt: as §1

[5] = test system: human orexin receptors; details: cited from earlier work
Excerpt: as §1

[6] = molecular target: T2, lfSCTR (P. dolloi secretin receptor) (Protopterus dolloi, UniProt F8RUA8); assay: Intracellular cAMP production in lfSCTR-transfected CHO cells; type: cell-based; details: for [cAMP]i stimulation of lfSCTR at 100 nM: 100 nM peptide, lfSCTR-transfected CHO-K1 cells, P<0.001; for EC50: CHO cells transiently transfected with lfSCTR, graded peptide concentrations, LANCE cAMP assay, mean ± SEM, n = 4, read-out: [cAMP]i EC50, lfSCTR
T2 sequence (F8RUA8 1-463): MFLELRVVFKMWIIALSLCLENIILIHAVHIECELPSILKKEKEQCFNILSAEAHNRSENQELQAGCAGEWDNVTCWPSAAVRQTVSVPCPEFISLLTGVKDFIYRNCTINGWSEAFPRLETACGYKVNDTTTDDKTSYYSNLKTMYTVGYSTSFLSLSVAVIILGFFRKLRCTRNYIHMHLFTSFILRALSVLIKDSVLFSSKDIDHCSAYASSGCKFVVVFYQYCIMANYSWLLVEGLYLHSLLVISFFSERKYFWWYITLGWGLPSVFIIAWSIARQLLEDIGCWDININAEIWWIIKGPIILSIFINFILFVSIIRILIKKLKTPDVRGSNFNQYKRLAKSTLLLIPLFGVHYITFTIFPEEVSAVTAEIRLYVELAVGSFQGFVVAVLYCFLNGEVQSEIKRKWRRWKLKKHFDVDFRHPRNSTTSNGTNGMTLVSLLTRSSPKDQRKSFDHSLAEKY
Excerpt: as §3

[7] = molecular target: T2, lfSCTR (P. dolloi secretin receptor); assay: Intracellular calcium mobilization in lfSCTR-transfected CHO cells; type: cell-based; details: lfSCTR-transfected CHO cells preloaded with Fluo-3; confocal imaging; at least 10 independent experiments; read-out: [Ca2+]i EC50, lfSCTR
Method: as §2, §3

[8] = lfSCTR-CHO cells, micro-molar concentrations (10^-5 and 10^-6 M)

Porcine SCT: porcine secretin, literature result (HSDGTFTSELSRLRDSARLQRLLQGLV; ends and bridges not checked; UniProt P63298 33-59, looked up)
displacement of [125I] orexin A binding [1]: found to displace

C=C[C@@]1(C)CC(=O)[C@]2(O)[C@@]3(C)[C@@H](O)CCC(C)(C)[C@@H]3[C@H](O)[C@H](OC(C)=O)[C@@]2(C)O1 [Forskolin]
increase in cAMP level compared with the basal [2]: 20 fold

Human orexin B: human orexin B peptide
[Ca2+]i response, xOX2R [3]: able to induce calcium elevations

SCT: secretin, species not stated, in cited human orexin receptor studies
calcium elevation [4]: unable
displacement of [125I] orexin A [4]: unable to displace
agonistic or antagonistic effects [5]: neither agonistic nor antagonistic effects

Human orexin A: human orexin A peptide (QPLPDCCRQKTCSCRLYELLHGAGNHAAGILTL; ends and bridges not checked; cysteine pairing not given here; UniProt O43612 34-66, looked up)
[Ca2+]i response, xOX2R [3]: able to induce calcium elevations

CC[C@H](C)[C@H](NC(=O)[C@H](CO)NC(=O)[C@H](CC(N)=O)NC(=O)[C@H](CC(C)C)NC(=O)[C@H](Cc1ccc(O)cc1)NC(=O)[C@H](CCCCN)NC(=O)[C@H](CCCCN)NC(=O)[C@@H](NC(=O)[C@H](C)NC(=O)[C@H](CCSC)NC(=O)[C@H](CCC(N)=O)NC(=O)[C@H](CCCCN)NC(=O)[C@H](CCCNC(=N)N)NC(=O)[C@H](CC(C)C)NC(=O)[C@H](CCCNC(=N)N)NC(=O)[C@@H](NC(=O)[C@H](Cc1ccc(O)cc1)NC(=O)[C@H](CC(N)=O)NC(=O)[C@H](CC(=O)O)NC(=O)[C@@H](NC(=O)[C@H](Cc1ccccc1)NC(=O)[C@@H](NC(=O)[C@H](C)NC(=O)[C@H](CC(=O)O)NC(=O)[C@H](CO)NC(=O)[C@@H](N)Cc1c[nH]cn1)C(C)C)[C@@H](C)O)[C@@H](C)O)C(C)C)C(=O)N[C@@H](CC(C)C)C(=O)N[C@@H](CC(N)=O)C(N)=O [hVIP]
[cAMP]i stimulation of lfSCTR at 100 nM [6]: significantly stimulate
EC50 [6]: 0.16 µM
EC50 [7]: 0.0103 µM

CC(C)C[C@H](NC(=O)CNC(=O)[C@H](CCC(N)=O)NC(=O)[C@H](CC(C)C)NC(=O)[C@H](CC(C)C)NC(=O)[C@H](CCCNC(=N)N)NC(=O)[C@H](CCC(N)=O)NC(=O)[C@H](CC(C)C)NC(=O)[C@H](CCCNC(=N)N)NC(=O)[C@H](C)NC(=O)CNC(=O)[C@H](CCC(=O)O)NC(=O)[C@H](CCCNC(=N)N)NC(=O)[C@H](CC(C)C)NC(=O)[C@H](CCCNC(=N)N)NC(=O)[C@H](CO)NC(=O)[C@H](CC(C)C)NC(=O)[C@H](CCC(=O)O)NC(=O)[C@H](CO)NC(=O)[C@@H](NC(=O)[C@H](Cc1ccccc1)NC(=O)[C@@H](NC(=O)CNC(=O)[C@H](CC(=O)O)NC(=O)[C@H](CO)NC(=O)[C@@H](N)Cc1c[nH]cn1)[C@@H](C)O)[C@@H](C)O)C(=O)N[C@H](C(N)=O)C(C)C [hSCT]
[cAMP]i stimulation of lfSCTR at 100 nM [6]: significantly stimulate
EC50 [6]: 0.79 µM
efficacy of hSCT relative to hPACAP27 in triggering [cAMP]i [6, 8]: 5.0 fold
efficacy of hSCT relative to hVIP in triggering [cAMP]i [6, 8]: 3.6 fold
EC50 [7]: 0.0147 µM

CC[C@H](C)[C@H](NC(=O)CNC(=O)[C@H](CC(=O)O)NC(=O)[C@H](CO)NC(=O)[C@@H](N)Cc1c[nH]cn1)C(=O)N[C@@H](Cc1ccccc1)C(=O)N[C@H](C(=O)N[C@@H](CC(=O)O)C(=O)N[C@@H](CO)C(=O)N[C@@H](Cc1ccc(O)cc1)C(=O)N[C@@H](CO)C(=O)N[C@@H](CCCNC(=N)N)C(=O)N[C@@H](Cc1ccc(O)cc1)C(=O)N[C@@H](CCCNC(=N)N)C(=O)N[C@@H](CCCCN)C(=O)N[C@@H](CCC(N)=O)C(=O)N[C@@H](CCSC)C(=O)N[C@@H](C)C(=O)N[C@H](C(=O)N[C@@H](CCCCN)C(=O)N[C@@H](CCCCN)C(=O)N[C@@H](Cc1ccc(O)cc1)C(=O)N[C@@H](CC(C)C)C(=O)N[C@@H](C)C(=O)N[C@@H](C)C(=O)N[C@H](C(=O)N[C@@H](CC(C)C)C(N)=O)C(C)C)C(C)C)[C@@H](C)O [hPACAP27]
[cAMP]i stimulation of lfSCTR at 100 nM [6]: significantly stimulate
EC50 [6]: 0.41 µM
EC50 [7]: 0.0256 µM

B1: xSCT: 28-amino acid X. laevis secretin peptide cloned in this study, synthesized by one of the authors (protein)
chain: SSLPARSKRHVDGRFTSEFSRARGSAAIRKIINSALAGKRDIEENYQIDVPDVDNQREILKELAYNSLPELRSEEKQLTEQKAAEDLLCSAILNMLYRAPYQPLPAQSAQDYQGKNSSVEEVKHI
EC50 [6]: 1.82 µM
EC50 [7]: 0.273 µM
